Values after ≈ are worked out from the molar mass of the structure shown. Read-outs that look alike come from different tables or passages of the source.
Experiments:
[1] = test system: Two-Spotted Spider Mite; test: Biological Method D: Foliar Insecticidal Activity Test, mite test; assay type: in vivo, Tetranychus urticae; design: key to LC50 TSM: I = inactive at concentration listed; details: Method D foliar test, Two-Spotted Spider Mite; for LC50: Tetranychus urticae, read-out: LC50 TSM
Method: (§1) Biological Method D: Foliar Insecticidal Activity Test
(§2) In evaluating the foliar insecticidal activity of the compounds of this invention against insects and mites, the following test procedures were employed.
(§3) Not all compounds were tested at each of the several concentrations stated above. Test concentrations of a compound were selected as those most likely to differentiate dose response of a particular compound toward a particular test insect.
(§4) Initial evaluations were made on one or more of the following pests:
For the mite test, infested bean (Phaseolus limensis var. Woods Prolific) leaf discs [3.18 cm (1.25") in diameter] containing about 50 mites were placed in a Petri dish lid on a moistened piece of cotton. The leaves were then sprayed to thorough wetness with the test solution using a rotating turntable, held for twenty-four hours and then the percentage killed was determined.
(§5) The mortalities obtained in this manner were plotted on logarithmic probability paper.
(§6) The rotating turntable consists of a fixed, continuously operating spray nozzle under which targets are rotated at a fixed speed and distance. If the target is a Petri dish (such as for the bean beetle, armyworm, mite, or aphid tests), the distance from the nozzle is 38.1 cm (15 inches). If the target is a Mason jar (such as for the boll weevil test), the distance from the nozzle is 17.8 cm (7 inches). The nozzle is located 8 inches from the rotating shaft. The targets on individual platforms revolve around the shaft at 1 revolution per 20 seconds but only a brief portion of this time occurs in the spray path. Targets pass only once under the nozzle and then are removed to drying hoods.
(§7) The nozzle used is a 1/4 JCO Spraying Systems (Wheaton, Illinois) air atomizing nozzle equipped with a No. 2850 fluid cap and a No. 70 air cap. At the 68.95 x 10³ Pa gauge (10 psig) air pressure used and with liquid siphon feed, 1.89 ℓ/hr [0.5 GPH (gallons per hour)] are delivered in a round spray pattern with a 21 degree spray angle. Targets are misted with spray droplets to the point that the droplets coalesce to form a uniform thin film insufficient to drown test organisms.

[2] = test system: Boll Weevil; test: Biological Method D: Foliar Insecticidal Activity Test, boll weevil test; assay type: in vivo, Anthonomous grandis; design: key: I = inactive at concentration listed
Method: as §1, §2, §3, §4
(§8) For the boll weevil test, 10 adult weevils were placed in a 0.24 ℓ (0.5 pint) glass Mason jar containing a small cube of apple. The weevils were confined to the jar by fiberglass screen mesh secured by a screw-type rim cap. The jars were then sprayed with the test solution using a rotating turntable; directing the spray through the mesh into the jar. The percentage killed was determined after forty-eight and ninety six hours.
as §5, §6, §7

[3] = test system: Green Peach Aphid; test: Biological Method D: Foliar Insecticidal Activity Test, aphid test; assay type: in vivo, Myzus persicae; design: key: I = inactive at concentration listed
Method: as §1, §2, §3, §4
For the aphid test, infested broccoli (Brassica oleracea italica var. DiCicco) leaves containing about 50 aphids were placed in a Petri dish lid on a moistened piece of cotton. The leaves were then sprayed to thorough wetness with the test solution using a rotating turntable, held for twenty-four hours and then the percentage killed was determined.
as §5, §6, §7

[4] = test system: Southern Armyworm; test: Biological Method D: Foliar Insecticidal Activity Test, Southern Armyworm test; assay type: in vivo, Spodoptera eridania; design: key: I = inactive at concentration listed
Method: as §1, §2, §3, §4
(§9) For the Mexican Bean Beetle and Southern armyworm tests, individual lima bean (Phaseolus limeniss var. Woods' Prolific) leaves were placed on moistened pieces of filter paper in Petri dishes. The leaves were then sprayed with the test solution using a rotating turntable and allowed to dry. The dishes were then infested with 10 third instar larvae of either the Mexican Been Beetle or the Southern Armyworm. The dishes were then covered. Percent mortality was determined for each species and spray concentration at 48 and 96 hours after treatment.
as §5, §6, §7

[5] = test system: southern corn rootworm, Diabrotica undecimpunctata howardi; test: Biological Method A: Corn Rootworm Screening Test (treated non-aggressive soil); details: soil concentration giving 90% mortality, 10 days at 27°C
[6] = test system: Mexican Bean Beetle; test: Biological Method D: Foliar Insecticidal Activity Test, Mexican Bean Beetle test; assay type: in vivo, Epilachna varivestis; design: key to LC50 BB 96 hrs / LC50 BB 48 hrs.: I = inactive at concentration listed; details: Mexican Bean Beetle; for LC50: Epilachna varivestis
Method: as §1, §2, §3, §4, §9, §5, §6, §7

[7] = test system: Boll Weevil; test: Biological Method D: Foliar Insecticidal Activity Test, boll weevil test; assay type: in vivo, Anthonomous grandis; details: Method D foliar test, Boll Weevil
Method: as §1, §2, §3, §4, §8, §5, §6, §7

[8] = Method D foliar test, 48 hrs, read-out: LC50 BB 48 hrs.
[9] = Method D foliar test, 96 hrs, read-out: LC50 BB 96 hrs

SMILES | LC50 TSM [1] | LC50 BW 48 hrs [2] | LC50 BW 96 hrs [2] | LC50 GPA [3] | LC50 AW 48 hrs [4] | LC50 AW 96 hrs [4] | primary nonagressive Method A crw LC90 [5] | LC50 [6, 8] | LC50 [6, 9] | LC50 [1] | LC50 BB 48 hrs. ([6]; Method D foliar test, 48 hrs) | LC50 BB 96 hrs ([6]; Method D foliar test, 96 hrs) | LC50 BW 48 hrs [7] | LC50 BW 96 hrs [7] | LC50 ([6]; foliar, 48 hrs, compounds a-r, read-out: LC 50 BB 48 hrs.) | LC50 ([6]; foliar, 96 hrs, compounds a-r, read-out: LC 50 BB 96 hrs.)
CCOP(=S)(NNP1(=S)N(C)CCN1C)OCC [Compound 3] | I | I | I | I | I | I | 4.5 ppm | – | – | – | – | – | – | – | – | –
CCOP(=O)(NNP(=S)(OCC)OCC)SCC (stereo not shown) [Compound 21] | I | I | I | I | I | I | 4.7 ppm | – | – | – | – | – | – | – | – | –
CCCOP(=S)(NNP(=O)(OCC)SCC)OCCC (stereo not shown) [Compound 22] | I | I | I | I | I | I | I | 150 µg/mL (≈ 412 µM) | 115 µg/mL (≈ 316 µM) | – | – | – | – | – | – | –
CCCNP(=S)(NNP(=S)(OCCC)OCCC)OCC (stereo not shown) [Compound 25] | I | I | I | I | I | I | 2.5 ppm | 38 µg/mL (≈ 101 µM) | 13 µg/mL (≈ 34.4 µM) | – | – | – | – | – | – | –
CCOP(=S)(NNP(=S)(OCC)SCC)OCC (stereo not shown) [Compound 26] | – | I | I | I | I | I | 1.1 ppm | 150 µg/mL (≈ 426 µM) | 150 µg/mL (≈ 426 µM) | 640 µg/mL (≈ 1820 µM) | – | – | – | – | – | –
CCOP(=S)(NNP(=S)(OC)OC)OCC [Compound 36, reference compound] | – | I | I | I | I | I | 0.90 ppm | – | 600 µg/mL (≈ 1950 µM) | 79 µg/mL (≈ 256 µM) | I | – | – | – | – | –
CCCOP(=S)(NNP(=S)(OC)OC)OCCC [Compound 37, reference compound] | – | I | I | I | I | I | 1.7 ppm | 150 µg/mL (≈ 446 µM) | 62 µg/mL (≈ 184 µM) | 450 µg/mL (≈ 1340 µM) | – | – | – | – | – | –
CCOP(=S)(NNP(=S)(OCC)OC(C)(C)C(F)(F)F)OCC (stereo not shown) [Compound 40] | – | I | I | I | I | I | 1.0 ppm | 38 µg/mL (≈ 90.8 µM) | 45 µg/mL (≈ 108 µM) | 150 µg/mL (≈ 359 µM) | – | – | – | – | – | –
COP(=S)(NNP(=S)(OC)OC)OC [Compound 42, reference compound] | – | I | I | I | I | I | I | 600 µg/mL (≈ 2140 µM) | – | 150 µg/mL (≈ 535 µM) | – | I | – | – | – | –
CCOP(=O)(NNP(=S)(OCC)OCC)SC(C)CC (stereo not shown) [Compound 53] | I | – | – | I | I | I | 1.6 ppm | – | – | – | I | I | 740 ppm | 740 ppm | – | –
CCOP(=O)(NNP(=S)(OCC)OC(C)C)SC(C)CC (stereo not shown) [Compound 55] | I | – | – | I | I | I | 1.1 ppm | – | 17 µg/mL (≈ 44.9 µM) | – | I | – | 740 ppm | 70 ppm | – | –
CCOP(=O)(NNP(=S)(OCC)OC(C)CC)SC(C)CC (stereo not shown) [Compound 56] | I | I | I | I | I | I | 1.1 ppm | 380 µg/mL (≈ 968 µM) | 31 µg/mL (≈ 79 µM) | – | – | – | – | – | – | –
CCOP(=S)(NNP(=S)(OCC(C)(C)C)OCC(C)(C)C)OCC [Compound 59, reference compound] | I | – | – | I | I | I | I | – | – | – | I | I | 740 ppm | 740 ppm | – | –
CCOP(=S)(NNP(=S)(OCC)N1CCCC1)OCC (stereo not shown) [Compound 60] | I | I | I | I | I | I | 1.1 ppm | – | – | – | I | I | – | – | – | –
CCOP(=S)(NNP(=S)(OCC)N1CCCCC1)OCC (stereo not shown) [Compound 62] | I | I | I | I | I | I | 1.1 ppm | – | – | – | I | I | – | – | – | –
CCOP(=S)(NN(C)P(=S)(OCC)OCC)OC(C)C (stereo not shown) [p] | – | – | – | – | – | – | – | – | – | – | – | – | – | – | 270 µg/mL (≈ 741 µM) | 78 µg/mL (≈ 214 µM)
